According to US4916219A, “Oligosaccharide heparin fragments as inhibitors of complement cascade” (University of Iowa Research Foundation, priority 1988, dated 1990):

How the values were obtained:
[1] = system: aPTT (activated thromboplastin time); experiment: Anticoagulant activity by aPTT; type: biochemical; conditions: standard curve using heparin (Mr avg 14,000), 167 units/mg
Method: (§1) This example illustrates the anticoagulant activity of each heparin and heparin-oligosaccharide fragment. Anticoagulant activity was determined by aPTT (activated thromboplastin time) (Linhardt et al., J. Biol. Chem. 257: 7310-13, 1982). Antithrombin III-mediated anti-factor IIa and antifactor Xa activity was measured using purified plasma proteins as described in Linhardt et al. and in Table 2. […] Two bovine heparins had 106% and 124% of standard porcine heparin's activity and the low molecular weight heparin had 100% of standard porcine heparin's activity on complement activation.
(§2) The anticoagulant activity of heparin-oligosaccharides and commercial heparins measured by antifactor IIa assays are plotted against their ability to inhibit complement activation in FIG. 5. The porcine heparins, bovine heparins, and low molecular heparins cluster, showing only minor differences in activities.

[2] = system: T1, factor IIa (Homo sapiens); experiment: Antithrombin III mediated anti-factor IIa activity, purified plasma proteins; type: biochemical; conditions: standard curve using heparin (Mr avg 14,000), 167 units/mg
T1 construct: anti-factor IIa; from tissue
T1 sequence (P01008 33-464): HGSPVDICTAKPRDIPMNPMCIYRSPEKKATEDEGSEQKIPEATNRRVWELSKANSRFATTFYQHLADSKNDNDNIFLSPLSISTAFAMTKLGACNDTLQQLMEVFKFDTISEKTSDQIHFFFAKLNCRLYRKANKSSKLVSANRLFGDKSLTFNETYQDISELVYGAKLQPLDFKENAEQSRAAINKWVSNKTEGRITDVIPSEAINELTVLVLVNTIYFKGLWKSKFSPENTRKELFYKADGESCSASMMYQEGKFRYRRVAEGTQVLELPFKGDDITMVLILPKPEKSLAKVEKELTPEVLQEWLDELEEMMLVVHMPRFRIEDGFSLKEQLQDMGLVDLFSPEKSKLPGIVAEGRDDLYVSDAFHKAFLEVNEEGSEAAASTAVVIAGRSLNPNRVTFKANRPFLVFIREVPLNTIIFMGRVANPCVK
Method: as §1, §2

factor Xa = experiment: Antithrombin III mediated anti-factor Xa activity, purified plasma proteins; type: biochemical; conditions: standard curve using heparin (Mr avg 14,000), 167 units/mg
Method: as §1

[3] = biological target: T2, alternative-amplification pathway C3 convertase on EAC4b,3b (Homo sapiens, UniProt P00751+P01024); experiment: Inhibition of generation of alternative-amplification pathway C3 convertase (lysis of EAC4b,3b); type: biochemical, sheep erythrocyte
T2 construct: C3bBb(P) formation read by lysis with rat serum-EDTA
T2 sequence (P01024 23-1663): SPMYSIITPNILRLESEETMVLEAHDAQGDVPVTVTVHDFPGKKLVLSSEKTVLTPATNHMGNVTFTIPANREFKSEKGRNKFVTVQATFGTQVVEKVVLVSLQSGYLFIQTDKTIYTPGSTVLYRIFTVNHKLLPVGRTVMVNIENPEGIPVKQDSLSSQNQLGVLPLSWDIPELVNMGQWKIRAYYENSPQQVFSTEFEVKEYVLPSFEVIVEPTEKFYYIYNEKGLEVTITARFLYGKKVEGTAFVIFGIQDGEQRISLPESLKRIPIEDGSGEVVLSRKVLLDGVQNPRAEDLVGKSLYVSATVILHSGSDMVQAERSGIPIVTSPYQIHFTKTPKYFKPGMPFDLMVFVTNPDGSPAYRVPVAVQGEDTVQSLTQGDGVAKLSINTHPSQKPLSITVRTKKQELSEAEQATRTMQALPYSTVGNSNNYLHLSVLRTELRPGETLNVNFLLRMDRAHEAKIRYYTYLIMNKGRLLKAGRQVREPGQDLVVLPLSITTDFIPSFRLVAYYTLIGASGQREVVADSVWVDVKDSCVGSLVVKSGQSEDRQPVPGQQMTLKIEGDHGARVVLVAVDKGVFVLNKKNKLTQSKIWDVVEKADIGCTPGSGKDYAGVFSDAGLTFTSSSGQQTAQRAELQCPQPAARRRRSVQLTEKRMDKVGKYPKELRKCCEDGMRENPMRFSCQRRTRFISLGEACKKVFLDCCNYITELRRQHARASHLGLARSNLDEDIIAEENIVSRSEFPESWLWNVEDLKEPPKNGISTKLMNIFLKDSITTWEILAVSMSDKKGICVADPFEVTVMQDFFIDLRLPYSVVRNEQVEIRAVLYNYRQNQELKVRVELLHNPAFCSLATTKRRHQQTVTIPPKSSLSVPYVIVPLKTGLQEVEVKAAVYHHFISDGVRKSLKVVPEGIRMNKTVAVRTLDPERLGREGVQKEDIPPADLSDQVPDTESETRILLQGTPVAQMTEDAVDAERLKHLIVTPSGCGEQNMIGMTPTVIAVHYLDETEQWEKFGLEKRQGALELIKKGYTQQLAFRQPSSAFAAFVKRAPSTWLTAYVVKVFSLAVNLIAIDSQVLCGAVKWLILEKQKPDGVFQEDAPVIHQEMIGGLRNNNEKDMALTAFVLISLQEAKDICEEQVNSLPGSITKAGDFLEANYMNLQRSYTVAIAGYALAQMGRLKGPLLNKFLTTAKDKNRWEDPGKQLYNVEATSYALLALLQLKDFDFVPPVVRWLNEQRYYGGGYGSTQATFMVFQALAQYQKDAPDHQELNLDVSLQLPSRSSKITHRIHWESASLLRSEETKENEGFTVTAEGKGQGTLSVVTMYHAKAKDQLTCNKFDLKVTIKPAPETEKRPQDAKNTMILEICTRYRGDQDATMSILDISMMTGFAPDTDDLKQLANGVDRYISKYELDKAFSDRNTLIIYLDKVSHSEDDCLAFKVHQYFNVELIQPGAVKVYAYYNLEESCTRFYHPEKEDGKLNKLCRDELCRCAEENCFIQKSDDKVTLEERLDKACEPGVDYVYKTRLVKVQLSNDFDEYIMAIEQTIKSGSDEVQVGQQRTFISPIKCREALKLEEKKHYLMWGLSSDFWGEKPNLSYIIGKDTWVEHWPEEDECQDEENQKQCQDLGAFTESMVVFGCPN
T2 sequence (P00751 26-764): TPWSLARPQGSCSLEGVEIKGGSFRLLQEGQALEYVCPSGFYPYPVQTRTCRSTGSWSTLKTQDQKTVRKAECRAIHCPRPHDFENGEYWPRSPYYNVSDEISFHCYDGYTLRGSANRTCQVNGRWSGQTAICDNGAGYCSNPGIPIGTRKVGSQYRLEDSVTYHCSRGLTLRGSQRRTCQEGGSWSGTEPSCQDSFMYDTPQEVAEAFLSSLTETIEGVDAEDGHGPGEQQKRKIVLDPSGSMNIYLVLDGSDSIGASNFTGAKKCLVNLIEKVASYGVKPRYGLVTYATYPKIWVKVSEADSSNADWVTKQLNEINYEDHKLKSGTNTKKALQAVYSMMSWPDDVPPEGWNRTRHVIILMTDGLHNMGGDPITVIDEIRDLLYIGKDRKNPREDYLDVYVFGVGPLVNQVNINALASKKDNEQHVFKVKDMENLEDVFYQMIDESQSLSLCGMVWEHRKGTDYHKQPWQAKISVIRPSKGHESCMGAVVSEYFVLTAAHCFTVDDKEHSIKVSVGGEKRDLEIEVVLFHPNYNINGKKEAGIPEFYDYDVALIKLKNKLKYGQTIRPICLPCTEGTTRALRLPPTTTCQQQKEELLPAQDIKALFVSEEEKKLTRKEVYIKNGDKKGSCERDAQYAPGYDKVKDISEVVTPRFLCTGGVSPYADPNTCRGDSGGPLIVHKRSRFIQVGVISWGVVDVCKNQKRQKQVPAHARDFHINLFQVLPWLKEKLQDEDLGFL
T2 sequence (P27918 28-469 partner): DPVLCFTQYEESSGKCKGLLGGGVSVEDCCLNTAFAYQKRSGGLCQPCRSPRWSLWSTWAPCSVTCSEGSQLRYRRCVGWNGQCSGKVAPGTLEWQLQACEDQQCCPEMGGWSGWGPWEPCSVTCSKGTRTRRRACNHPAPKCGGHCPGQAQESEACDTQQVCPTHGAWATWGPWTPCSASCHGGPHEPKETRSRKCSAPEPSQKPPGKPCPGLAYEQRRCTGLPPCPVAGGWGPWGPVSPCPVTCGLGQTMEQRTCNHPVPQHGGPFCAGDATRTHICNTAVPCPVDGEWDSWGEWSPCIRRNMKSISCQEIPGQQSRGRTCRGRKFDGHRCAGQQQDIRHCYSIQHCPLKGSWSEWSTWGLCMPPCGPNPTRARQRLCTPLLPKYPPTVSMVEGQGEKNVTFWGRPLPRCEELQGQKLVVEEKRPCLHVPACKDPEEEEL
T2 sequence (P00746 26-253 partner): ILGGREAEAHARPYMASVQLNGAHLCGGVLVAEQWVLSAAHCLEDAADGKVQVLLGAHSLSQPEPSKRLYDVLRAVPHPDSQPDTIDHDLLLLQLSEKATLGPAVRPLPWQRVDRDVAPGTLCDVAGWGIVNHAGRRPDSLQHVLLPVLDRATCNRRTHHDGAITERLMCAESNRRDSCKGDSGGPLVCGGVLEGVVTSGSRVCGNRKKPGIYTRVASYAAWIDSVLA
Method: This example illustrates the activity of heparin and heparin-oligosaccharides to inhibit generation of the alternative-amplification pathway C3 convertase. The method described in Weiler et al., J. Exp. Med. 147: 409-421, 1978; Weiler, Immunopharmacology 6: 245-255, 1983; and Sharath et al., Immunopharmacology 9: 73-83, 1985, was used. Briefly, inhibition was examined in experiments that used EAC4b,3b which were prepared to have high, intermediate, and low amounts of C3 on the cell surface. EAC4b,3b^100, EAC4b,3b^20, and EAC4b,3b^5 were produced using a C3 input of 100 μg, 20 μg, and 5 μg per 10^9 EAC4b,2a cellular intermediates, respectively. Complement assay buffer (DGVB^++) 100 μL, alone was added to tubes used for the reagent blank, no inhibition, and 100% lysis; or complement assay buffer containing a heparin or heparin-oligosaccharide solution was added to the remaining tubes. At time zero, 100 μl of complement assay buffer containing a suspension of 1×10^7 EAC4b,3b, an excess amount of P and D (100 ng P), and an amount of B needed to lyse the noninhibited tubes at an average of 1 hemolytic event per cell (0.03 ng B for EAC4b,3b^100, 0.15 ng B for EAC4b,3b^20, and 0.50 ng B for EAC4b,3b^5) was added to each tube. The tubes used for the reagent blank contained no B. The mixtures were incubated for 30 minutes at 30° C. with shaking. Then, 300 μL of a 1:20 dilution of rat serum in 40 mM EDTA was added to each tube and incubation was continued with shaking for 60 minutes at 37° C. Saline (1.5 mL) was then added to each tube, except the 100% tube which was lysed with 1.5 mL of water in place of the saline. Finally, the contents of the tubes were mixed, centrifuged and the absorbance of the supernatant was measured at 414 nm.
The percent lysis, the average number of hemolytic sites per cell (Z), and the percent inhibition were then calculated. Data are expressed as either percent inhibition or as 100 times the ED50 (the amount of heparin resulting in 50% inhibition) for heparin divided by the ED50 for heparin-oligosaccharide. Concentration of heparin and heparin-oligosaccharides are expressed as micrograms per 1×10^7 cellular intermediates. The volume of the reaction tubes during convertase generation varied between 0.2 mL and 0.3 mL; the number of cellular intermediates was held at 1×10^7 per tube. The amount of lysis (Z) seen in the nonhibited tube was relatively independent of the volume of buffer present in the tube during convertase generation. Similarly, the amount of inhibition of convertase generation was independent of the volume of buffer present in the tube during convertase generation.

Compound	Anticoagulant ACTIVITY aPTT [1]	Anticoagulant ACTIVITY Antithrombin III mediated Anti-factor IIa [2]	Anticoagulant ACTIVITY Antithrombin III mediated Anti-factor Xa (factor Xa)	Complement activation inhibitory activity [3]
O=C(O)C1=CC(O)C(OS(=O)(=O)O)C(OC2C(COS(=O)(=O)O)OC(OC3C(C(=O)O)OC(OC4C(COS(=O)(=O)O)OC(OC5C(C(=O)O)OC(OC6C(COS(=O)(=O)O)OC(OC7C(C(=O)O)OC(OC8C(COS(=O)(=O)O)OC(OC9C(C(=O)O)OC(OC%10C(COS(=O)(=O)O)OC(O)C(NS(=O)(=O)O)C%10O)C(OS(=O)(=O)O)C9O)C(NS(=O)(=O)O)C8O)C(OS(=O)(=O)O)C7O)C(NS(=O)(=O)O)C6O)C(OS(=O)(=O)O)C5O)C(NS(=O)(=O)O)C4O)C(OS(=O)(=O)O)C3O)C(NS(=O)(=O)O)C2O)O1 (centres unmarked) [10D]	54 units/μmole	< 3 units/μmole	136 units/μmole	
O=C(O)C1=C[C@H](O)[C@@H](OS(=O)(=O)O)[C@H](O[C@H]2[C@H](O)[C@@H](NS(=O)(=O)O)[C@@H](O[C@H]3[C@H](O)[C@@H](O)[C@H](O[C@H]4[C@H](O)[C@@H](NS(=O)(=O)O)C(O)O[C@@H]4COS(=O)(=O)O)O[C@@H]3C(=O)O)O[C@@H]2COS(=O)(=O)O)O1 (stereo partly drawn) [4B, ΔUAp2S(1→4)-α-D-GlcNp2S6S(1→4)-β-D-GlcAp(1→4)-α-D-GlcNp2S6S]	2 units/μmole	< 2 units/μmole	0.1 units/μmole	low activity
CC(=O)NC1C(OC2C(C(=O)O)OC(OC3C(COS(=O)(=O)O)OC(O)C(NS(=O)(=O)O)C3OS(=O)(=O)O)C(O)C2O)OC(COS(=O)(=O)O)C(OC2OC(C(=O)O)C(OC3OC(COS(=O)(=O)O)C(OC4OC(C(=O)O)=CC(O)C4OS(=O)(=O)O)C(O)C3NS(=O)(=O)O)C(O)C2O)C1O [6C, ΔUAp2S(1→4)-α-D-GlcNp2S6S(1→4)-α-L-IdoAp(1→4)-α-D-GlcNAcp6S-(1→4)-β-D-GlcAp( 1→4)-α-D-GlcNp2S3S6S]	26 units/μmole	11 units/μmole	26 units/μmole	low activity
O=C(O)C1=C[C@H](O)[C@@H](OS(=O)(=O)O)[C@H](O[C@H]2[C@H](O)[C@@H](NS(=O)(=O)O)[C@@H](O[C@H]3[C@H](O)[C@@H](OS(=O)(=O)O)[C@H](O[C@H]4[C@H](O)[C@@H](NS(=O)(=O)O)C(O)O[C@@H]4COS(=O)(=O)O)O[C@H]3C(=O)O)O[C@@H]2CO)O1 (stereo partly drawn) [4A, ΔUAp2S(1→4)-α-D-GlcNp2S(1→4)-α-L-IdoAp2S-α-D-GlcNp2S6S]	2 units/μmole	< 1 units/μmole	< 0.1 units/μmole	low activity
O=C(O)C1=C[C@H](O)[C@@H](OS(=O)(=O)O)[C@H](O[C@H]2[C@H](O)[C@@H](NS(=O)(=O)O)[C@@H](O[C@H]3[C@H](O)[C@@H](OS(=O)(=O)O)[C@H](O[C@H]4[C@H](O)[C@@H](NS(=O)(=O)O)C(O)O[C@@H]4COS(=O)(=O)O)O[C@H]3C(=O)O)O[C@@H]2COS(=O)(=O)O)O1 (stereo partly drawn) [4C, ΔUAp2S(1→4)-α-D-GlcNp2S6S(1→4)-α-L-IdoAp2S(1→4)-α-D-GlcNp2S6S]	2 units/μmole	< 2 units/μmole	3 units/μmole	low activity
O=C(O)C1=C[C@H](O)[C@@H](OS(=O)(=O)O)[C@H](O[C@H]2[C@H](O)[C@@H](NS(=O)(=O)O)C(O)O[C@@H]2COS(=O)(=O)O)O1 (stereo partly drawn) [compound 2, ΔUAp2S(1→4)-α-D-GlcNp2S6S]	< 1 units/μmole	< 1 units/μmole	< 0.1 units/μmole	low activity
O=C(O)C1=CC(O)C(OS(=O)(=O)O)C(OC2C(COS(=O)(=O)O)OC(OC3C(C(=O)O)OC(OC4C(COS(=O)(=O)O)OC(OC5C(C(=O)O)OC(OC6C(COS(=O)(=O)O)OC(OC7C(C(=O)O)OC(OC8C(COS(=O)(=O)O)OC(O)C(NS(=O)(=O)O)C8O)C(OS(=O)(=O)O)C7O)C(NS(=O)(=O)O)C6O)C(OS(=O)(=O)O)C5O)C(NS(=O)(=O)O)C4O)C(OS(=O)(=O)O)C3O)C(NS(=O)(=O)O)C2O)O1 (centres unmarked) [8D]	22 units/μmole	< 3 units/μmole	32 units/μmole	
O=C(O)C1=CC(O)C(OS(=O)(=O)O)C(OC2C(COS(=O)(=O)O)OC(OC3C(C(=O)O)OC(OC4C(COS(=O)(=O)O)OC(OC5C(C(=O)O)OC(OC6C(COS(=O)(=O)O)OC(O)C(NS(=O)(=O)O)C6O)C(OS(=O)(=O)O)C5O)C(NS(=O)(=O)O)C4O)C(OS(=O)(=O)O)C3O)C(NS(=O)(=O)O)C2O)O1 (centres unmarked) [6D]	11 units/μmole	< 2 units/μmole	4 units/μmole	
